In the NIST ThermoML archive (doi:10.1016/j.jct.2016.09.005):
Numbers after ± are expanded uncertainties.

Settings: Brillouin Light Scattering

CC(C)OC(C)C [diisopropyl ether]
Settings | speed of sound [m/s]
432.85 K, 1000 kPa, Liquid | 434.31 ± 6.1
433.18 K, 2500 kPa, Liquid | 464.16 ± 6.5
433.27 K, 4000 kPa, Liquid | 498.85 ± 7
437.97 K, 5500 kPa, Liquid | 515.55 ± 7.4
438.45 K, 8500 kPa, Liquid | 566.84 ± 8.1
438.48 K, 10000 kPa, Liquid | 599.89 ± 8.5
438.69 K, 7000 kPa, Liquid | 537.87 ± 7.6
438.94 K, 2500 kPa, Liquid | 440.93 ± 6.2
439.03 K, 4000 kPa, Liquid | 475.92 ± 6.7
442.55 K, 7000 kPa, Liquid | 521.69 ± 7.4
442.6 K, 4000 kPa, Liquid | 461.81 ± 6.5
442.85 K, 8500 kPa, Liquid | 551.1 ± 7.9
442.96 K, 10000 kPa, Liquid | 583.95 ± 8.3
443.09 K, 5500 kPa, Liquid | 494.52 ± 7.1
443.48 K, 2500 kPa, Liquid | 424.11 ± 6
447.46 K, 2500 kPa, Liquid | 407.02 ± 5.8
447.46 K, 10000 kPa, Liquid | 569.2 ± 8.2
447.74 K, 5500 kPa, Liquid | 476.22 ± 6.9
448.06 K, 8500 kPa, Liquid | 530.98 ± 7.6
448.43 K, 4000 kPa, Liquid | 436.29 ± 6.2
448.7 K, 7000 kPa, Liquid | 505.01 ± 7.2
453.11 K, 2500 kPa, Liquid | 380.57 ± 5.4
453.12 K, 5500 kPa, Liquid | 456.86 ± 6.7
453.5 K, 4000 kPa, Liquid | 418.12 ± 6
453.57 K, 10000 kPa, Liquid | 548.35 ± 7.8
453.75 K, 8500 kPa, Liquid | 518.95 ± 7.4
454.24 K, 7000 kPa, Liquid | 488.02 ± 7
457.15 K, 2500 kPa, Liquid | 366.77 ± 5.2
457.57 K, 10000 kPa, Liquid | 539.84 ± 7.7
457.63 K, 8500 kPa, Liquid | 503.76 ± 7.2
457.7 K, 7000 kPa, Liquid | 475.35 ± 6.8
457.87 K, 4000 kPa, Liquid | 397.64 ± 5.7
458.03 K, 5500 kPa, Liquid | 440.35 ± 6.5
462.93 K, 4000 kPa, Liquid | 377.89 ± 5.4
463.16 K, 7000 kPa, Liquid | 457.86 ± 6.7
463.6 K, 8500 kPa, Liquid | 488.56 ± 7
463.85 K, 10000 kPa, Liquid | 521.08 ± 7.5
463.88 K, 2500 kPa, Liquid | 338.04 ± 4.9
464.11 K, 5500 kPa, Liquid | 418.4 ± 6.2
467.52 K, 5500 kPa, Liquid | 406.91 ± 6.1
467.53 K, 10000 kPa, Liquid | 508.72 ± 7.3
467.58 K, 7000 kPa, Liquid | 440.63 ± 6.4
467.74 K, 8500 kPa, Liquid | 473.19 ± 6.8
468.21 K, 4000 kPa, Liquid | 357.71 ± 5.2
472.64 K, 8500 kPa, Liquid | 459.74 ± 6.7
472.67 K, 7000 kPa, Liquid | 424.62 ± 6.3
472.84 K, 5500 kPa, Liquid | 384.97 ± 5.8
472.94 K, 4000 kPa, Liquid | 339.72 ± 4.9
473.24 K, 10000 kPa, Liquid | 491.15 ± 7.1
505.6 K, 3500 kPa, Fluid (supercritical or subcritical phases) | 132.11 ± 4
505.8 K, 4500 kPa, Fluid (supercritical or subcritical phases) | 215.46 ± 4.1
506.21 K, 5500 kPa, Fluid (supercritical or subcritical phases) | 263.63 ± 5.2
506.39 K, 6500 kPa, Fluid (supercritical or subcritical phases) | 301.19 ± 5.3
509.39 K, 3500 kPa, Fluid (supercritical or subcritical phases) | 114.34 ± 3.7
509.87 K, 4500 kPa, Fluid (supercritical or subcritical phases) | 196.58 ± 3.9
510.29 K, 5500 kPa, Fluid (supercritical or subcritical phases) | 244.35 ± 5
510.5 K, 6500 kPa, Fluid (supercritical or subcritical phases) | 281.9 ± 5.2
516.22 K, 3500 kPa, Fluid (supercritical or subcritical phases) | 102.13 ± 2.8
516.95 K, 6500 kPa, Fluid (supercritical or subcritical phases) | 262.61 ± 5.4
517.48 K, 4500 kPa, Fluid (supercritical or subcritical phases) | 161.27 ± 3.4
518.73 K, 5500 kPa, Fluid (supercritical or subcritical phases) | 206.26 ± 5
519.67 K, 3500 kPa, Fluid (supercritical or subcritical phases) | 108 ± 2.3
520.35 K, 4500 kPa, Fluid (supercritical or subcritical phases) | 144.87 ± 3
521.7 K, 5500 kPa, Fluid (supercritical or subcritical phases) | 199.75 ± 5.1
522.21 K, 6500 kPa, Fluid (supercritical or subcritical phases) | 243.32 ± 5.1
526.46 K, 3500 kPa, Fluid (supercritical or subcritical phases) | 116.09 ± 1.9
527.21 K, 4500 kPa, Fluid (supercritical or subcritical phases) | 126.63 ± 2.4
528.59 K, 5500 kPa, Fluid (supercritical or subcritical phases) | 173.63 ± 4.9
529.79 K, 6500 kPa, Fluid (supercritical or subcritical phases) | 222.12 ± 5.2
532.59 K, 4500 kPa, Fluid (supercritical or subcritical phases) | 114.85 ± 2
533.14 K, 5500 kPa, Fluid (supercritical or subcritical phases) | 166.48 ± 4.7
533.59 K, 6500 kPa, Fluid (supercritical or subcritical phases) | 210.67 ± 4.8
534.66 K, 4500 kPa, Fluid (supercritical or subcritical phases) | 113.71 ± 1.9
535.53 K, 5500 kPa, Fluid (supercritical or subcritical phases) | 159.52 ± 4.5
536.07 K, 6500 kPa, Fluid (supercritical or subcritical phases) | 205.77 ± 4.8
536.58 K, 3500 kPa, Fluid (supercritical or subcritical phases) | 132.72 ± 2.2
540.66 K, 4500 kPa, Fluid (supercritical or subcritical phases) | 121.9 ± 2
541.18 K, 5500 kPa, Fluid (supercritical or subcritical phases) | 155.19 ± 3.7

speed of sound [m/s]
Settings | 443.46 K | 453.54 K | 457.54 K | 463 K | 468.31 K | 473.8 K | 478.69 K | 483.1 K | 487.42 K | 492.48 K
Gas | 140.99 ± 2.5 | 135.34 ± 2.4 | 131.58 ± 2.4 | 125.98 ± 2.3 | 121.95 ± 2.2 | 115.5 ± 2.1 | 108.41 ± 2 | 103.7 ± 2 | 98.66 ± 1.9 | 91.71 ± 1.8
Liquid | 384.46 ± 5.4 | 336.71 ± 4.8 | 315.85 ± 4.5 | 290.41 ± 4.1 | 263.51 ± 3.8 | 237.38 ± 3.4 | 210.25 ± 3.1 | 185.8 ± 2.8 | 162.27 ± 2.5 | 135.68 ± 2.1
